This passage reports Activity results from ChEMBL document CHEMBL1158895, “Tartrolone C: a novel insecticidal macrodiolide produced by Streptomyces sp. CP1130” (2003).

For test [1], the system named is Heliothis virescens. The test is described as follows: Antilepidopteran activity against tobacco budworm eggs assessed as minimum emergent larvicide concentration after 6 to 7 days. Format: functional.
Test [2] has as its system Spodoptera exigua. The test is described as follows: Antilepidopteran activity against beet armyworm eggs assessed as minimum emergent larvicide concentration after 6 to 7 days. In kind it is functional.

The structures appear in SMILES notation.

In the case of `CC[C@H]1CCC[C@H](O[C@H]2CC[C@H](N(C)C)[C@@H](C)O2)[C@@H](C)C(=O)C2=C[C@@H]3[C@@H](C=C[C@@H]4C[C@@H](O[C@@H]5O[C@@H](C)[C@H](OC)[C@@H](OC)[C@H]5OC)C[C@@H]34)[C@@H]2CC(=O)O1` [SPINOSYN A], the Activity in test [1] amounted to 0.4 ppm; in test [2] it was 3 ppm.

As to `C[C@@H]1C(=O)C[C@@H](O)CC/C=C/C=C\CC[C@H](C)OC(=O)[C@@H]2O[B-]34O[C@@H](C(=O)O[C@@H](C)CC/C=C\C=C\CC[C@H](O)CC(=O)[C@@H](C)[C@@H]5CC[C@](C)(O)[C@]2(O5)O3)[C@@]2(O[C@H]1CC[C@]2(C)O)O4` [TARTROLON C], the Activity in test [1] and in test [2] was 125 ppm in each case.
